The values below come from PubChem BioAssay (NCI).

The structures appear in SMILES notation. “And” between values parts separate entries of the source, which are not always exact repeats. Equal values may be shown once.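 Method: 48-hour compound exposure of cells in 96-well plates, five concentrations, linear interpolation of endpoints. GI50 = concentration required for 50% inhibition of growth. Definition used: TGI = concentration required for complete inhibition of growth.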

Among the test systems are SN12C renal; UACC-257 melanoma; KM12 colon; NCI-H522 lung; HOP-62 NSCLC; CCRF-CEM leukemia; HCT-116 colon; MOLT-4 leukemia; RXF 393 renal; MDA-MB-231 breast.
Common to all, as to assay: growth of human tumour cells (NCI), 48 h

As to `O=C(/C=C/c1ccccc1)c1ccc(Cl)cc1Cl`, the TGI in the assay on SN12C renal is 57.7 µM; in the assay on UACC-257 melanoma, 63.8 µM; in the assay with KM12 colon, 34.2 µM; in the assay with NCI-H522 lung, 28.3 µM; in the assay on HOP-62 NSCLC, > 100 µM; in the assay with CCRF-CEM leukemia, 33.1 µM. Moreover, the TGI with HCT-116 colon turned out to be 24 µM; with MOLT-4 leukemia, 42.9 µM.
On to `Cc1cc(N(CCC#N)CCC#N)ccc1/C=C(\NC(=O)/C=C/c1ccccc1)C(=O)Nc1ccccc1Cl`, for which the TGI in the assay on SN12C renal, in the assay on UACC-257 melanoma, in the assay with RXF 393 renal, in the assay on KM12 colon, in the assay with CCRF-CEM leukemia and in the assay with HCT-116 colon was > 100 µM throughout. Besides, in the assay on MOLT-4 leukemia, the TGI is > 100 µM.
On to `CC1NOC(=O)C1N=Nc1cccc(Cl)c1` (centres undefined), for which the TGI is > 100 µM in the assay with SN12C renal; > 100 µM with UACC-257 melanoma; 64.1 µM in the assay on RXF 393 renal; > 100 µM in the assay with KM12 colon; 62.8 µM in the assay on NCI-H522 lung; > 100 µM in the assay on HOP-62 NSCLC. Moreover, the results for the TGI in the assay with CCRF-CEM leukemia, with HCT-116 colon and in the assay with MOLT-4 leukemia were 57.7 µM, > 100 µM and 86.7 µM, respectively.
Turning to `C[N+](C)(C)CC1CCC(C[N+](C)(C)C)C1=NO` (centres undefined), the TGI with SN12C renal, in the assay with UACC-257 melanoma, with RXF 393 renal, in the assay with KM12 colon, with NCI-H522 lung and in the assay on HOP-62 NSCLC was > 100 µM throughout. The TGI with CCRF-CEM leukemia, with HCT-116 colon and in the assay on MOLT-4 leukemia was > 100 µM in each case.
For `O=C(N/C(=C\c1ccc([N+](=O)[O-])cc1)c1nc2ccccc2s1)c1ccccc1`, the TGI with SN12C renal is 44.9 µM; with UACC-257 melanoma, 85.2 µM; in the assay on RXF 393 renal, 78.4 µM; in the assay with KM12 colon, 92.1 µM; in the assay with HOP-62 NSCLC, > 100 µM; in the assay with CCRF-CEM leukemia, 66.3 µM. Further, the values for the TGI in the assay on HCT-116 colon and with MOLT-4 leukemia were > 100 µM and 48 µM, respectively.
`COc1cc(C2CC(c3ccccc3)=NN2C=O)ccc1Oc1ccnc2cc(Cl)ccc12` (centres undefined): the GI50 was > 100000 nM in the assay with SN12C renal; 15400 nM in the assay on RXF 393 renal; > 100000 nM in the assay on KM12 colon; 5.28 µM in the assay on NCI-H522 lung; 12400 nM with HOP-62 NSCLC; 28.5 µM with MDA-MB-231 breast. The GI50 with HCT-116 colon was 6.07 µM. Further, the TGI in the assay with SN12C renal was > 100 µM; in the assay on RXF 393 renal it was 47.6 µM; in the assay with KM12 colon, > 100 µM; in the assay with NCI-H522 lung, > 100 µM; in the assay with HOP-62 NSCLC, 36.3 µM; in the assay on MDA-MB-231 breast it was > 100 µM. For the same compound, the TGI in the assay with HCT-116 colon was > 100 µM.
Regarding `COC(=O)C1=NC(=S)NC(c2ccccc2)C1c1nc2ccccc2o1` (centres undefined), the TGI with SN12C renal, with UACC-257 melanoma, in the assay with RXF 393 renal, in the assay on KM12 colon, in the assay on NCI-H522 lung and in the assay with HOP-62 NSCLC was > 50 µM in each case. The TGI in the assay on CCRF-CEM leukemia, in the assay on HCT-116 colon and in the assay with MOLT-4 leukemia was > 50 µM throughout.
On to `FC(F)(F)c1ccccc1C1SCc2nc3ccccc3n21` (centres undefined), for which the TGI with SN12C renal, in the assay with UACC-257 melanoma, in the assay with RXF 393 renal, in the assay on KM12 colon, with NCI-H522 lung and with CCRF-CEM leukemia was > 100 µM each time. For the same compound, the TGI in the assay on HCT-116 colon and in the assay with MOLT-4 leukemia was > 100 µM in each case.
Consider `Cc1ccc(NCCNCC(C)(C)O)c2c(=O)c3ccc(Cl)cc3sc12`, for which the GI50 was 1470 nM with SN12C renal; 1930 nM in the assay with UACC-257 melanoma; 1260 nM with RXF 393 renal; 1630 nM with KM12 colon; 1.82 µM with NCI-H522 lung; 1.16 µM in the assay on MDA-MB-231 breast. In addition, the GI50 in the assay with HCT-116 colon was 1.3 µM. Besides, the TGI in the assay on SN12C renal amounted to 3.01 µM; in the assay on UACC-257 melanoma, 3.44 µM; in the assay on RXF 393 renal, 2.61 µM; in the assay on KM12 colon, 3.13 µM; in the assay with NCI-H522 lung, 3.59 µM; with MDA-MB-231 breast, 2.57 µM. Also, the TGI in the assay with HCT-116 colon is 2.66 µM.
Turning to `CC(=O)CCC1(c2ccccc2)OC(=O)C(C#N)=C1c1ccccc1` (centres undefined), the TGI was > 100 µM in the assay on SN12C renal; > 100 µM in the assay with UACC-257 melanoma; > 100 µM in the assay with KM12 colon; 4.53 µM with NCI-H522 lung; > 100 µM in the assay with HOP-62 NSCLC; > 100 µM with CCRF-CEM leukemia. Moreover, the TGI with HCT-116 colon and in the assay on MOLT-4 leukemia was > 100 µM throughout.
With `C/C=C/C=C/c1cc2cc3c(c(O)c2c(=O)[nH]1)C1(CC3)C(O)=c2c(=O)c3c(=O)cc(OC)c(=O)c=3c(=O)c2=C1O` (centres undefined), the TGI in the assay on UACC-257 melanoma is 1.87 µM and 6.45 µM; in the assay with RXF 393 renal, 3.13 µM and 10.4 µM; in the assay on KM12 colon, 16.5 µM; in the assay with HOP-62 NSCLC it was 4.49 µM and 8.28 µM; in the assay with MDA-MB-231 breast it was 4.15 µM; with CCRF-CEM leukemia, 1.13 µM and 11.2 µM. For the same compound, the GI50 with RXF 393 renal is 622 nM and 3360 nM; with HOP-62 NSCLC, 327 nM and 1150 nM.
With `CCOc1ccc(NC(=O)CC2SC(=Nc3ccc(C)cc3)NC2=O)cc1` (centres undefined), the TGI in the assay on SN12C renal, in the assay with UACC-257 melanoma, in the assay with RXF 393 renal, in the assay on KM12 colon, in the assay on NCI-H522 lung and in the assay with HOP-62 NSCLC was > 100 µM throughout. The TGI with CCRF-CEM leukemia was > 100 µM; with HCT-116 colon it was > 100 µM; in the assay on MOLT-4 leukemia, 77.6 µM.
In the case of `Cc1cc(NCCCCCCCNc2cc(C)nc3cc(N)ccc23)c2ccc(N)cc2n1`, the TGI in the assay on SN12C renal is > 100 µM; in the assay with UACC-257 melanoma, > 100 µM; with RXF 393 renal, > 100 µM; in the assay on KM12 colon, 45.1 µM; in the assay with NCI-H522 lung, 81.5 µM; in the assay with HOP-62 NSCLC, > 100 µM. Further, the TGI was 64.9 µM with CCRF-CEM leukemia, > 100 µM with HCT-116 colon and > 100 µM in the assay on MOLT-4 leukemia.
On to `Cc1c(Cl)ccc2c1NC(=O)C2(O)CC(=O)c1ccc(Cl)cc1` (centres undefined), for which the TGI with SN12C renal is > 54.9 µM; in the assay on UACC-257 melanoma it was > 55.9 µM; in the assay with RXF 393 renal, > 88.5 µM; in the assay on KM12 colon, > 100 µM; with NCI-H522 lung it was > 100 µM; in the assay on HOP-62 NSCLC, > 100 µM. Besides, the results for the TGI in the assay on CCRF-CEM leukemia, in the assay on HCT-116 colon and in the assay with MOLT-4 leukemia were 53.5 µM, > 54 µM and 63.7 µM, respectively.
